What was measured:
Type in all cases: cell-based
[1] = system: S. aureus biofilm; experiment: Curative enzyme treatment followed by 24 hours vancomycin, biofilm on titanium coupons, viability by CFU counting; details: vancomycin 20 mg/L
From the text: (§1) Two different biofilm models were used: static biofilm in 96-well plate (as described previously) and biofilm on titanium coupons. Titanium was chosen because it is a material widely used in the manufacture of implants (e.g. orthopaedic prostheses, dental implants, heart valves, pacemakers, etc.). The techniques used to measure viability differ between the two models and are detailed below.
(§2) In this model, viability was quantified after detachment and homogenisation of the biofilm via the technique of spreading and counting cells on a TSA culture media (VWR).
(§3) Titanium coupons (n=3 for each condition) were placed in the wells of a 12-well plate and incubated at 37° C. with agitation (50 rpm) for 24 hours in 3 ml of bacterial inoculum at an OD of 0.005 (10^6 CFU/ml) in order to allow biofilm to form. The coupons were then washed 2× with PBS (2 ml) and treated for 1 hour at 37° C. with the composition according to the invention or the solution without enzymes (CT−=20 mM TrisHCl pH7). The coupons were then washed twice with PBS (2 ml) and reincubated in 750 μl of TGN containing 0 or 20 mg/L of vancomycin for 24 hours at 37° C. with agitation (50 rpm). After two washes with PBS (2 ml), the biofilm was detached and homogenised in 2 ml of PBS. Different dilutions were carried out (from 10 to 10) and 10 μl of each dilution was spread on a TSA dish. Colonies (CFU) were counted after 18 hours of incubation at 37° C.
(§4) To analyse the effect of the compositions according to the invention, a statistical test (one-way ANOVA and Tukey's post-hoc test) was carried out. This test compares the fluorescence (viability) or absorbance (biomass) values of the CT− negative control (=treatment with buffer without enzymes) and of the biofilms treated with the enzyme compositions, at each vancomycin concentration. The difference is significant when the pvalue of the statistical test is less than or equal to 0.05 (* used on graphs). When this is specified in the comparative examples, the activity of the various enzyme compositions is compared (one-way ANOVA and post-hoc Tukey test).

[2] = system: S. epidermidis ATCC35984 biofilm; experiment: as above; details: vancomycin 20 mg/L, absence of enzyme treatment (CT−, TGN)
From the text: as §1, §2, §3, §4

[3] = system: S. aureus ATCC33591 biofilm; experiment: Curative enzyme treatment followed by 24 hours vancomycin, biofilm in 96-well plates, viability (resazurin) and biomass (crystal violet); details: vancomycin 10 mg and 20 mg/L, absence of enzyme treatment
Method: For the tests described below, vancomycin was used as the antibiotic molecule. The antibiotic was added at different concentrations in TGN for 24 hours at 37° C. on the biofilms pretreated with the enzyme composition according to the invention (see the below sections). The biofilm was then washed before carrying out the biomass and viability measurements.
In this model, cell viability was measured indirectly, by measuring the metabolism of cells in the biofilm. Indeed, viability was quantified by tracking changes in the colour of resazurin (7-Hydroxy-3H-phenoxazin-3-one 10 oxide) (prestoBlue, ThermoFisher). […] The quantification of resorufin was carried out by measuring fluorescence. […]
The experimental method for cultivating the strains and forming the biofilm is described in point 1.1 of this document. […] The biofilms were then washed 2× with PBS (200 μl) before biomass and viability were analysed. Biomass was quantified via the CV staining technique following the procedure described in point 1.1. […] The plate containing all the samples was then incubated for 24 hours at 37° C. in the spectraMax M3 plate reader. Fluorescence was measured every 10 minutes for 18 hours (excitation 560 nm, emission 590 nm). […]

[4] = system: MG63 osteoblasts
Method: Cytotoxicity tests were performed on MG63 osteoblasts and other cell types.

[5] = system: biofilms comprising Candida albicans; experiment: Enzyme treatment of biofilms comprising Candida albicans followed by antifungal/antibiotic; details: Candida albicans alone or with S. aureus and/or E. coli; enzymes 30 minutes or 1 hour, then Caspofungin (and Moxifloxacin or Meropenem) 24 hours
From the text: The inventors then attempted to treat biofilms comprising Candida albicans, either in monoculture or in complex biofilm models comprising Candida albicans and prokaryotes. Different strains of Candida albicans were used: the ATCC24433 strain, as well as strains isolated from orthopaedic prosthesis infections. Subtilisin (protease from Bacillus licheniformis) and lyticase (from Arthrobacter luteus or Bacillus subtilis) were obtained at Sigma. The other enzymes are those used above.
The antifungal drug Caspofungin (Merck Sharp & Dohme) and, for complex biofilms additionally comprising one or more prokaryotes, the antibiotics Moxifloxacin HCl (Bayer) or Meropenem (Mylan) were used (24 hours of treatment, after the application of enzymes).

[6] = system: S. epidermidis ATCC35984 biofilm; experiment: Curative enzyme treatment (1 hour, 37° C.) of preformed 24-hour biofilm in 96-well plates, residual biomass by crystal violet staining (A570); details: 100 U/ml in TGN, vs CT−, 1 biofilm/3 of the panel significantly reduced
[7] = system: S. aureus biofilm; experiment: as above; details: S. aureus ATCC33591 and 7832; 100 U/ml in TGN; vs CT−; 1 biofilm/3 of the panel significantly reduced
Method: The effect of a treatment with the composition according to the invention on the biomass of biofilms was studied in a static model in 96-well plates. The curative enzyme treatment was carried out on a preformed 24-hour biofilm. To test its efficacy in reducing the biomass of biofilms, the composition according to the invention was brought into contact with the biofilm for 1 hour at 37° C. The enzyme solution was then removed, and the detached biomass was removed via rinsing steps. Crystal violet (CV) dye was then used to quantify residual biomass. […] CV staining was quantified via spectrophotometry by measuring the absorbance at 570 nm.
The different strains of S. aureus and P. aeruginosa (Table 1) were inoculated in 5 ml of TGN culture medium (Tryptic Soy Broth VWR+1% glucose+2% NaCl) from 20 μl of a stored glycerol stock at −80° C. […] The plates were then emptied, the biofilm was washed 2× with 200 μl PBS pH 7.5 (Sigma) and dried at 60° C. for 18 h before the biomass was analysed.
To quantify the residual biomass, a 1% CV solution (Sigma) was added to the biofilms at room temperature for 15 min. […] The dye attached to the biofilm was then detached and dissolved with 66% […] and absorbance at 570 nm (A570) was measured in a SpectraMax M3 multimode reader. This absorbance value corresponds to the biomass of the biofilm. […]

**Q.** For `CN[C@H](CC(C)C)C(=O)N[C@H]1C(=O)N[C@@H](CC(N)=O)C(=O)N[C@H]2C(=O)N[C@H]3C(=O)N[C@H](C(=O)N[C@H](C(=O)O)c4cc(O)cc(O)c4-c4cc3ccc4O)[C@H](O)c3ccc(c(Cl)c3)Oc3cc2cc(c3O[C@@H]2O[C@H](CO)[C@@H](O)[C@H](O)[C@H]2O[C@H]2C[C@](C)(N)[C@H](O)[C@H](C)O2)Oc2ccc(cc2Cl)[C@H]1O` [vancomycin], which “effect on viability in biofilm (in words)” value ([1]; S. aureus ATCC33591, titanium coupons, absence of enzyme treatment (CT−, Tris-HCl)) is on record?
**A.** does not decrease viability in biofilm

**Q.** What about the “effect on viability in biofilm (in words)” value ([1]; S. aureus ATCC33591 and 144-20, absence of enzyme treatment (CT−, TGN)) of the same molecule?
**A.** does not significantly reduce viability in biofilm

**Q.** And the “effect on viability in biofilm (in words)” value [2]?
**A.** does not significantly reduce viability in biofilm

**Q.** And the “effect on viability of the biofilm (in words)” value ([3]; 20 mM TrisHCl pH7)?
**A.** only very slightly reduces

**Q.** And the “effect on viability of the biofilm (in words)” value ([3]; TGN)?
**A.** does not reduce

B1: subtilisin: protease from Bacillus licheniformis (Sigma) (protein, UniProt P00780 106-379, looked up)
Subtilisin Carlsberg: AQTVPYGIPLIKADKVQAQGFKGANVKVAVLDTGIQASHPDLNVVGGASFVAGEAYNTDGNGHGTHVAGTVAALDNTTGVLGVAPSVSLYAVKVLNSSGSGSYSGIVSGIEWATTNGMDVINMSLGGASGSTAMKQAVDNAYAKGVVVVAAAGNSGSSGNTNTIGYPAKYDSVIAVGAVDSNSNRASFSSVGAELEVMAPGAGVYSTYPTNTYATLNGTSMASPHVAGAAALILSKHPNLSASQVRNRLSSTATYLGSSFYYGKGLINVEAAAQ
**Q.** With B1 as the molecule, how does the “concentration at which already toxic to osteoblasts” value [4] read?
**A.** about 0.5 U/mL

**Q.** And the “effect on biofilms comprising Candida albicans (in words)” value [5]?
**A.** sensitised biofilms

B2: CE1: RNase I (Escherichia coli endoribonuclease, class EC4.6.1) 100 U/ml in TGN (protein, UniProt P21338 24-268, looked up)
Ribonuclease I: LALQAKQYGDFDRYVLALSWQTGFCQSQHDRNRNERDECRLQTETTNKADFLTVHGLWPGLPKSVAARGVDERRWMRFGCATRPIPNLPEARASRMCSSPETGLSLETAAKLSEVMPGAGGRSCLERYEYAKHGACFGFDPDAYFGTMVRLNQEIKESEAGKFLADNYGKTVSRRDFDAAFAKSWGKENVKAVKLTCQGNPAYLTEIQISIKADAINAPLSANSFLPQPHPGNCGKTFVIDKAGY
**Q.** Which “effect on the decrease in the biomass percentage of the biofilms (in words)” value [6] does the source give for B2 here?
**A.** little or no significant effect

**Q.** What about the “effect on the decrease in the biomass percentage of the biofilms (in words)” value [7] of the same molecule?
**A.** little or no significant effect

— patent US20230390366A1, “PARAPHARMACEUTICAL OR PHARMACEUTICAL COMPOSITION ADMINISTRABLE TO A LIVING BEING, PREFERABLY A HUMAN BEING, COMPRISING AT LEAST ONE ENZYME FOR THE TREATMENT AND/OR PREVENTION OF BACTERIAL INFECTIONS INVOLVING BIOFILM FORMATION” (priority 2020, published 2023)
